Earlier results in US20050031690A1, “Stabilized prostaglandin formulation” (Pharmacia Corporation, priority 2003, published 2005).

Settings: solution state

In the case of CCCCC[C@H](O)/C=C/[C@H]1[C@H](O)CC(=O)[C@@H]1CCCCCCC(=O)O [prostaglandin E1], the “pH region of relative stability” value is given as 3-4.
